Measured values as given in the supplement of paper PMC13380429.

Legend:
HepG2 [1] = assay: cell viability relative to DMSO; higher = less toxic; details: 72 h
Vero E6 [2] = assay: as above; details: 72 h
Calu-3 [3] = assay: as above; details: 72 h
Caco-2 [4] = assay: as above; details: 72 h
U2OS [5] = assay: as above; details: 72 h
HepG2 [6] = assay: relative viability EC50 (midpoint between 100% and the lowest measured viability); higher = less toxic; details: 72 h
HepG2 [7] = assay: drug sensitivity score (DSS) for viability; higher = more toxic; extreme values may be limits of the assay; details: 72 h
Vero E6 [8] = assay: as above; details: 72 h
Calu-3 [9] = assay: as above; details: 72 h
Caco-2 [10] = assay: as above; details: 72 h
U2OS [11] = assay: as above; details: 72 h
[12] = tested on: A549-ACE2 infected with SARS-CoV-2; assay: cell count relative to DMSO; higher = less toxic; details: 24 h
A549-ACE2 = assay: drug-induced phospholipidosis relative to tamoxifen; higher = more phospholipidosis; details: 24 h
[13] = tested on: A549-ACE2 infected with SARS-CoV-2; assay: morphology score (similarity to uninfected cells); higher = more like uninfected cells; details: 24 h
[14] = tested on: A549-ACE2 infected with SARS-CoV-2; assay: SARS-CoV-2 infection rate relative to DMSO; higher = more infection; details: 24 h
Vero E6 [15] = assay: relative viability EC50 (midpoint between 100% and the lowest measured viability); higher = less toxic; details: 72 h
Calu-3 [16] = assay: as above; details: 72 h
Caco-2 [17] = assay: as above; details: 72 h
U2OS [18] = assay: as above; details: 72 h

CC(C)C[C@H](NC(=O)CNC(=O)c1cc(Cl)ccc1Cl)B1OC(=O)C(CC(=O)O)(CC(=O)O)O1 [ixazomib-citrate]
Details | SARS-CoV-2 infection rate [%] | cell count [%] | cell viability [%] | drug-induced phospholipidosis [%] | morphology score
A549-ACE2, 0.3 µM | – | – | – | 5.51 | –
Caco-2 [4], 1 nM | – | – | 105 | – | –
Caco-2 [4], 10 nM | – | – | 103 | – | –
Caco-2 [4], 100 nM | – | – | 22.9 | – | –
Caco-2 [4], 1000 nM | – | – | 6.1 | – | –
Caco-2 [4], 10000 nM | – | – | 7 | – | –
Calu-3 [3], 1 nM | – | – | 107 | – | –
Calu-3 [3], 10 nM | – | – | 103 | – | –
Calu-3 [3], 100 nM | – | – | 27.9 | – | –
Calu-3 [3], 1000 nM | – | – | 5.6 | – | –
Calu-3 [3], 10000 nM | – | – | 4.8 | – | –
HepG2 [1], 1 nM | – | – | 106 | – | –
HepG2 [1], 10 nM | – | – | 107 | – | –
HepG2 [1], 100 nM | – | – | 98 | – | –
HepG2 [1], 1000 nM | – | – | 6.3 | – | –
HepG2 [1], 10000 nM | – | – | 0.3 | – | –
U2OS [5], 1 nM | – | – | 107 | – | –
U2OS [5], 10 nM | – | – | 106 | – | –
U2OS [5], 100 nM | – | – | 69.6 | – | –
U2OS [5], 1000 nM | – | – | 0.4 | – | –
U2OS [5], 10000 nM | – | – | -0.3 | – | –
Vero E6 [2], 1 nM | – | – | 106 | – | –
Vero E6 [2], 10 nM | – | – | 102 | – | –
Vero E6 [2], 100 nM | – | – | 72.5 | – | –
Vero E6 [2], 1000 nM | – | – | 11.5 | – | –
Vero E6 [2], 10000 nM | – | – | 4.8 | – | –
[12], 0.1 µM | – | 97 | – | – | –
[12], 0.3 µM | – | 74 | – | – | –
[12], 1 µM | – | 69 | – | – | –
[12], 3 µM | – | 60 | – | – | –
[13], 0.1 µM | – | – | – | – | 0.41
[13], 0.3 µM | – | – | – | – | 0.25
[13], 1 µM | – | – | – | – | 0.3
[13], 3 µM | – | – | – | – | 0.28
[14], 0.1 µM | 81 | – | – | – | –
[14], 0.3 µM | 85 | – | – | – | –
[14], 1 µM | 47 | – | – | – | –
[14], 3 µM | 43 | – | – | – | –

Details | drug sensitivity score | relative viability EC50 [µM]
Caco-2 [10] | 25.9 | –
Calu-3 [9] | 25.5 | –
HepG2 [6] | – | 0.358
HepG2 [7] | 17.2 | –
U2OS [11] | 22.4 | –
Vero E6 [8] | 19.6 | –

CC(C)C[C@H](NC(=O)CNC(=O)c1cc(Cl)ccc1Cl)B1OC(=O)C(CC(=O)O)(CC(=O)O)O1 [MLN9708]
Details | SARS-CoV-2 infection rate [%] | cell count [%] | cell viability [%] | drug-induced phospholipidosis [%] | morphology score
A549-ACE2, 0.3 µM | – | – | – | 4.58 | –
A549-ACE2, 0.833333 µM | – | – | – | -2.83 | –
Caco-2 [4], 1 nM | – | – | 99.6 | – | –
Caco-2 [4], 10 nM | – | – | 94.6 | – | –
Caco-2 [4], 100 nM | – | – | 11.4 | – | –
Caco-2 [4], 1000 nM | – | – | 5.1 | – | –
Caco-2 [4], 10000 nM | – | – | 5 | – | –
Calu-3 [3], 1 nM | – | – | 95.1 | – | –
Calu-3 [3], 10 nM | – | – | 95.1 | – | –
Calu-3 [3], 100 nM | – | – | 19.6 | – | –
Calu-3 [3], 1000 nM | – | – | 6.6 | – | –
Calu-3 [3], 10000 nM | – | – | 5.2 | – | –
HepG2 [1], 1 nM | – | – | 89.6 | – | –
HepG2 [1], 10 nM | – | – | 104 | – | –
HepG2 [1], 100 nM | – | – | 65 | – | –
HepG2 [1], 1000 nM | – | – | 4.3 | – | –
HepG2 [1], 10000 nM | – | – | 0.5 | – | –
U2OS [5], 1 nM | – | – | 101 | – | –
U2OS [5], 10 nM | – | – | 95.8 | – | –
U2OS [5], 100 nM | – | – | 43.2 | – | –
U2OS [5], 1000 nM | – | – | 0.5 | – | –
U2OS [5], 10000 nM | – | – | 0 | – | –
Vero E6 [2], 1 nM | – | – | 97 | – | –
Vero E6 [2], 10 nM | – | – | 99.5 | – | –
Vero E6 [2], 100 nM | – | – | 44.1 | – | –
Vero E6 [2], 1000 nM | – | – | 10.5 | – | –
Vero E6 [2], 10000 nM | – | – | 4.8 | – | –
[12], 0.1 µM | – | 88 | – | – | –
[12], 0.3 µM | – | 78 | – | – | –
[12], 1 µM | – | 65 | – | – | –
[12], 3 µM | – | 57 | – | – | –
[13], 0.1 µM | – | – | – | – | 0.35
[13], 0.3 µM | – | – | – | – | 0.28
[13], 1 µM | – | – | – | – | 0.27
[13], 3 µM | – | – | – | – | 0.28
[14], 0.1 µM | 88 | – | – | – | –
[14], 0.3 µM | 83 | – | – | – | –
[14], 1 µM | 48 | – | – | – | –
[14], 3 µM | 33 | – | – | – | –

Details | drug sensitivity score | relative viability EC50 [µM]
Caco-2 [10] | 28.8 | –
Calu-3 [9] | 27.3 | –
HepG2 [6] | – | 0.139
HepG2 [7] | 22.1 | –
U2OS [11] | 24.7 | –
Vero E6 [8] | 23.8 | –

COc1nccc(-c2c(-c3ccc(F)cc3)ncn2C2CCNCC2)n1
cell viability [%]
Details | Caco-2 [4] | Calu-3 [3] | HepG2 [1] | U2OS [5] | Vero E6 [2]
1 nM | 95.8 | 87.3 | 93.9 | 96.3 | 100
10 nM | 95.7 | 93.7 | 99.8 | 99.5 | 97
100 nM | 87.6 | 90.7 | 104 | 97.1 | 94.4
1000 nM | 95.2 | 95.7 | 88.4 | 96.9 | 83.6
10000 nM | 87.8 | 83.3 | 94.6 | 90 | 89

Details | drug sensitivity score | relative viability EC50 [µM]
Caco-2 [10] | 0 | –
Caco-2 [17] | – | > 10
Calu-3 [9] | 0 | –
Calu-3 [16] | – | > 10
HepG2 [6] | – | > 10
HepG2 [7] | 0.4 | –
U2OS [11] | 0 | –
U2OS [18] | – | > 10
Vero E6 [8] | 1.4 | –
Vero E6 [15] | – | > 10

CCCCCC(C)N (centres undefined) [tuaminoheptane]
cell viability [%]
Details | Caco-2 [4] | Calu-3 [3] | HepG2 [1] | U2OS [5] | Vero E6 [2]
1 nM | 90.7 | 90.3 | 103 | 100 | 96.4
10 nM | 89.6 | 98.6 | 94.9 | 101 | 103
100 nM | 95.9 | 109 | 83 | 97.5 | 97.9
1000 nM | 96.8 | 107 | 88.8 | 99.9 | 95
10000 nM | 87.6 | 104 | 90.8 | 96.4 | 94.4

Details | drug sensitivity score | relative viability EC50 [µM]
Caco-2 [10] | 0 | –
Caco-2 [17] | – | > 10
Calu-3 [9] | 0 | –
Calu-3 [16] | – | > 10
HepG2 [6] | – | > 10
HepG2 [7] | 4.1 | –
U2OS [11] | 0 | –
U2OS [18] | – | > 10
Vero E6 [8] | 0 | –
Vero E6 [15] | – | > 10

C1=Cc2cccc(OCC3CNCCO3)c2C1 (centres undefined) [indeloxazine]
cell viability [%]
Details | Caco-2 [4] | Calu-3 [3] | HepG2 [1] | U2OS [5] | Vero E6 [2]
1 nM | 101 | 105 | 105 | 95.2 | 104
10 nM | 94.2 | 93.8 | 111 | 97.8 | 106
100 nM | 86.4 | 104 | 104 | 101 | 102
1000 nM | 88.9 | 97.1 | 93.1 | 99.3 | 102
10000 nM | 90.3 | 97.8 | 91.7 | 96.8 | 93.8

Details | drug sensitivity score | relative viability EC50 [µM]
Caco-2 [10] | 2.3 | –
Caco-2 [17] | – | > 10
Calu-3 [9] | 0 | –
Calu-3 [16] | – | > 10
HepG2 [6] | – | > 10
HepG2 [7] | 0 | –
U2OS [11] | 0 | –
U2OS [18] | – | > 10
Vero E6 [8] | 0 | –
Vero E6 [15] | – | > 10

COc1ccc(NS(=O)(=O)c2ccc(I)cc2)cc1N1CCN(C)CC1
cell viability [%]
Details | Caco-2 [4] | Calu-3 [3] | HepG2 [1] | U2OS [5] | Vero E6 [2]
1 nM | 109 | 95.6 | 108 | 101 | 103
10 nM | 98 | 94.7 | 104 | 97.7 | 107
100 nM | 102 | 102 | 100 | 102 | 102
1000 nM | 98.5 | 93.3 | 99.9 | 99.8 | 100
10000 nM | 93.3 | 101 | 82.6 | 98.2 | 92.2

Details | drug sensitivity score | relative viability EC50 [µM]
Caco-2 [10] | 0 | –
Caco-2 [17] | – | > 10
Calu-3 [9] | 0 | –
Calu-3 [16] | – | > 10
HepG2 [6] | – | > 10
HepG2 [7] | 0.4 | –
U2OS [11] | 0 | –
U2OS [18] | – | > 10
Vero E6 [8] | 0 | –
Vero E6 [15] | – | > 10
